Measured values: patent US9776965B2, “Pyrrolidin-2-one and piperidin-2-one derivatives as 11-beta hydroxysteroid dehydrogenase inhibitors” (Janssen Pharmaceutica N.V., priority 2004, dated 2017)

Tests used:
11b-HSD1 [1] = molecular target: T1, 11b-HSD1 (Mus musculus, UniProt P50172); experiment: Cellular assay, 11b-HSD1 activity in differentiated 3T3-L1 cells; assay type: cell-based; conditions: 4 hour pre-incubation; for IC50: read-out: [C2] HSD1 cellular 3T3-L1 Score
T1 construct: Fibroblasts were differentiated into adipocytes; endogenous in cells; host or cells: differentiated 3T3-L1 cells (ATCC-CL-173)
Protocol: The effects on 11b-HSD1 activity was measured in differentiated 3T3-L1 cells and rat hepatocytes.
Mouse fibroblast 3T3-L1 cells (ATCC-CL-173) were seeded at a density of 16500 cells/ml in 12 well plates and grown for 7 days in DMEM medium (supplemented with 10% heat inactivated foetal calf serum, 2 mM glutamine and 25 mg gentamycin) at 37 C in a humidified 5% CO2 atmosphere. Medium was refreshed twice a week. Fibroblasts were differentiated into adipocytes at 37 C in a 5% CO2 humidified atmosphere in growth medium containing 2 μg/ml insulin, 55 μg/ml IBMX and 39.2 μg/ml dexamethasone.
Following a 4 hour pre-incubation with test compound, 0.5 μCi ^3H-cortisone or dehydrocorticosterone, was added to the cultures. One hour later, the medium was extracted on Extrelut^3-columns with 15 ml diethyl ether and the extract was analysed by HPLC as described above.
As for the enzymatic assays, the compounds to be tested were taken from a stock solution and tested at a final concentration ranging from […] to 3.10^−9M. From the thus obtained dose response curves, the pIC50 value was calculated and scored as follows; Score 1=pIC50 value<5, Score 2=pIC50 value in the range of 5 to 6, Score 3=pIC50 value>6. Some of the thus obtained results are summarized in the table below (in this table NT stands for Not Tested).

11b-HSD1 [2] = molecular target: 11b-HSD1 (Homo sapiens, UniProt P28845); experiment: Enzymatic assay, 11b-HSD1 dependent conversion of cortisone into cortisol (reductase activity); assay type: biochemical; conditions: recombinant protein, 2 μM cortisone, 45 min at 37 C; read-out: [C1] HSD1-prot Reduct Score
Protocol: The effects of compounds on 11b-HSD1 dependent conversion of cortisone into cortisol (reductase activity) was studied in a reaction mixture containing 30 mM Tris-HCl buffer pH 7.2, 180 μM NADPH, 1 mM EDTA, 2 μM cortisone, 1 μl drug and/or solvent and 11 μg recombinant protein in a final volume of 100 μl.
All incubations were performed for 45 min at 37 C in a water bath. The reaction was stopped by adding 100 μl acetonitrile containing 20 μg corticosterone as internal standard. After centrifugation, the product formation was analysed in the supernatant by HPLC on a Hypersyl BDS-C18 column using 0.05 mM ammonium acetate/methanol (50/50) as solvent. In all of the aforementioned assays, the drugs to be tested were taken from a stock solution and tested at a final concentration ranging from […] to 3.10^−9M. From the thus obtained dose response curves, the pIC50 value was calculated and scored as follows; Score 1=pIC50 value<5, Score 2=pIC50 value in the range of 5 to 6, Score 3=pIC50 value>6. (in this table NT stands for Not Tested).

T1 sequence (P50172 whole entry): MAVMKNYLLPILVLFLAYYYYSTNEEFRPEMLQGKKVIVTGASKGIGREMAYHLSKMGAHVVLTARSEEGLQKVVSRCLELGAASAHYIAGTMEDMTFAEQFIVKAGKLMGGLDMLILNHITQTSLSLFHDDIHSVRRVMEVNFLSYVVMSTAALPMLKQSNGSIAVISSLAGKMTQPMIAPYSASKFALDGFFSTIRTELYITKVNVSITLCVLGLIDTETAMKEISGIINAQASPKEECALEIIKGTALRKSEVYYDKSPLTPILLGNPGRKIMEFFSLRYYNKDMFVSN
11b-HSD1 (Homo sapiens, UniProt P28845), sequence (P28845 whole entry): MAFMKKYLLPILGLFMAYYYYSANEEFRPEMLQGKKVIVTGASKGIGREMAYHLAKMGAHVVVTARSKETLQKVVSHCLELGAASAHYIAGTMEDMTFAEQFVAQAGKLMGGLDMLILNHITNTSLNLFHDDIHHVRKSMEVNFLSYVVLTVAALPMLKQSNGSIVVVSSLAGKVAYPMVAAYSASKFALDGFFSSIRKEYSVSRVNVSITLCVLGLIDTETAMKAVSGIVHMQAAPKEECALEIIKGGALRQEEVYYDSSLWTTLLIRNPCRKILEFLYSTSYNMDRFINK

| Compound | IC50 (11b-HSD1 [1]) | IC50 (11b-HSD1 [2]) | [C2] HSD1 cellular 3T3-L1 Score (11b-HSD1 [1]) |
| --- | --- | --- | --- |
| COc1ccccc1C[C@H]1CCN([C@H](C)c2ccccc2)C1=O [Compound 39] | 1 to 10 µM | > 10 µM | – |
| C[C@@H](c1ccccc1)N1CCC(C)(c2ccccc2)C1=O (stereo partly shown) [Compound 166] | 1 to 10 µM | – | – |
| C[C@H](c1ccccc1)N1CCC(C)(c2ccccc2)C1=O (stereo partly shown) [Compound 167] | > 10 µM | – | – |
| N#Cc1ccccc1CC1CCN(Cc2ccccc2)C1=O (stereo not shown) [Compound 54] | 1 to 10 µM | > 10 µM | – |
| C[C@@H](c1ccccc1)N1CC[C@H](Cc2ccc(F)cc2Cl)C1=O [Compound 150] | < 1 µM | < 1 µM | – |
| O=C1C(Cc2c(F)cccc2F)CCN1CCc1ccccc1 (stereo not shown) [Compound 84] | < 1 µM | 1 to 10 µM | – |
| C[C@@H](c1ccccc1)N1CC[C@H](Cc2ccc3c(c2)OCO3)C1=O [Compound 152] | < 1 µM | 1 to 10 µM | – |
| CC(C)(c1ccccc1)N1CCC(Cc2c(Cl)cccc2Cl)C1=O (stereo not shown) [Compound 115] | < 1 µM | > 10 µM | – |
| CC[C@@H](c1ccccc1)N1CC[C@@H](Cc2c(Cl)cccc2Cl)C1=O [Compound 95] | 1 to 10 µM | < 1 µM | – |
| COc1ccc(CC[C@@H]2CCN([C@@H](C)c3ccccc3)C2=O)cc1 [Compound 132] | 1 to 10 µM | 1 to 10 µM | – |
| O=C1[C@H](Cc2c(Cl)cccc2Cl)CCN1[C@@H](CO)c1ccccc1 [Compound 107] | > 10 µM | 1 to 10 µM | – |
| Cc1ccc(CCN2CCC(Cc3c(Cl)cccc3Cl)C2=O)cc1 (stereo not shown) [Compound 93] | > 10 µM | > 10 µM | – |
| O=C1C(Cc2cccc(Cl)c2)CCN1Cc1ccccc1 (stereo not shown) [Compound 51] | 1 to 10 µM | > 10 µM | – |
| O=C1C(Cc2c(Cl)cccc2Cl)CCN1[C@@H](Cc1ccccc1)c1ccccc1 (stereo partly shown) [Compound 102] | > 10 µM | > 10 µM | – |
| O=C1C(Cc2c(Cl)cccc2Cl)CCN1CCc1ccc(F)cc1 (stereo not shown) [Compound 81] | – | > 10 µM | 3 (Score 3=pIC50 value>6) |
| Cc1ccccc1C[C@@]1(C)CCN([C@@H](C)c2ccccc2)C1=O [Compound 143] | 1 to 10 µM | > 10 µM | – |
| C[C@@H](c1ccccc1)N1CC[C@H](CCc2c(F)cccc2Cl)C1=O [Compound 129] | 1 to 10 µM | 1 to 10 µM | – |
| O=C1C(Cc2cc3c(cc2Cl)OCO3)CCN1CCc1ccccc1 (stereo not shown) [Compound 86] | < 1 µM | 1 to 10 µM | – |
| O=C1[C@@H](Cc2c(Cl)cccc2Cl)CCN1[C@H](CO)c1ccccc1 [Compound 104] | 1 to 10 µM | > 10 µM | – |
| COc1ccc(C[C@H]2CCN([C@@H](C)c3ccccc3)C2=O)c(Cl)c1OC [Compound 120] | < 1 µM | 1 to 10 µM | – |
| COc1cccc(C[C@@H]2CCN([C@@H](C)c3ccccc3)C2=O)c1 [Compound 20] | > 10 µM | > 10 µM | – |
| COc1ccccc1CC1CCN(Cc2ccccc2)C1=O (stereo not shown) [Compound 60] | 1 to 10 µM | > 10 µM | – |
| C[C@@H](c1ccccc1)N1CC[C@H](CCc2ccc(N(C)C)cc2)C1=O [Compound 131] | 1 to 10 µM | > 10 µM | – |
| Cc1cccc(CC2CCN(Cc3ccccc3)C2=O)c1 (stereo not shown) [Compound 56] | 1 to 10 µM | > 10 µM | – |
| C[C@@H](c1ccccc1)[C@H]1CCN([C@@H](C)c2ccccc2)C1=O [Compound 160] | > 10 µM | < 1 µM | – |
| Cc1ccc(CC2CCN(Cc3ccccc3)C2=O)cc1 (stereo not shown) [Compound 25] | < 1 µM | > 10 µM | – |
| C[C@H](c1ccccc1)N1CC[C@@H](Cc2ccccc2Cl)C1=O [Compound 40] | < 1 µM | 1 to 10 µM | – |
| COc1cc(C[C@@H]2CCN([C@@H](C)c3ccccc3)C2=O)ccc1OCc1ccccc1 [Compound 121] | > 10 µM | > 10 µM | – |
| Cc1ccccc1C[C@H]1CCN([C@H](C)c2ccccc2)C1=O [Compound 67] | < 1 µM | 1 to 10 µM | – |

Next, values leading:

| IC50 (11b-HSD1 [1]) | IC50 (11b-HSD1 [2]) | [C2] HSD1 cellular 3T3-L1 Score (11b-HSD1 [1]) | Compound |
| --- | --- | --- | --- |
| 1 to 10 µM | > 10 µM | – | C[C@@H](c1ccccc1)N1CC[C@@H](CCc2ccc(N(C)C)cc2)C1=O [Compound 130] |
| 1 to 10 µM | < 1 µM | – | COc1ccc(CCN2CCC(Cc3c(Cl)cccc3Cl)C2=O)cc1 (stereo not shown) [Compound 92] |
| 1 to 10 µM | > 10 µM | – | COc1cc(CC2CCN(CCc3ccccc3)C2=O)ccc1OCc1ccccc1 (stereo not shown) [Compound 109] |
| > 10 µM | > 10 µM | – | COc1ccc(CC[C@@H]2CCN([C@@H](C)c3ccccc3)C2=O)cc1OC [Compound 125] |
| 1 to 10 µM | > 10 µM | – | Cc1ccccc1C[C@]1(C)CCN([C@@H](C)c2ccccc2)C1=O [Compound 142] |
| > 10 µM | < 1 µM | – | CC[C@@H](C[C@H]1CCN([C@@H](C)c2ccccc2)C1=O)c1ccccc1 [Compound 141] |
| 1 to 10 µM | > 10 µM | – | Cc1cccc(C[C@@H]2CCN([C@@H](C)c3ccccc3)C2=O)c1 [Compound 16] |
| > 10 µM | 1 to 10 µM | – | O=C1[C@@H](Cc2c(Cl)cccc2Cl)CCN1[C@@H](CO)c1ccccc1 [Compound 106] |
| > 10 µM | > 10 µM | – | COc1ccc(CC[C@H]2CCN([C@@H](C)c3ccccc3)C2=O)cc1OC [Compound 126] |
| 1 to 10 µM | > 10 µM | – | C[C@H](c1ccccc1)N1CC[C@@H](Cc2cccc(Cl)c2Cl)C1=O [Compound 42] |
| > 10 µM | 1 to 10 µM | – | O=C1C(Cc2ccc(F)cc2Cl)CCN1CCc1ccccc1 (stereo not shown) [Compound 85] |
| 1 to 10 µM | 1 to 10 µM | – | COc1ccccc1C[C@@H]1CCN([C@@H](C)c2ccccc2)C1=O [Compound 8] |
| < 1 µM | < 1 µM | – | O=C1[C@H](Cc2c(Cl)cccc2Cl)CCN1[C@H](CO)c1ccccc1 [Compound 105] |
| < 1 µM | < 1 µM | – | C[C@@H](c1ccccc1)[C@@H]1CCN([C@@H](C)c2ccccc2)C1=O [Compound 158] |
| 1 to 10 µM | 1 to 10 µM | – | COc1ccccc1CC[C@@H]1CCN([C@@H](C)c2ccccc2)C1=O [Compound 123] |
| 1 to 10 µM | > 10 µM | – | COc1cccc(C[C@H]2CCN([C@H](C)c3ccccc3)C2=O)c1 [Compound 66] |
| < 1 µM | 1 to 10 µM | – | C[C@H](c1ccccc1)N1CC[C@@H](Cc2ccccc2C#N)C1=O [Compound 49] |
| 1 to 10 µM | > 10 µM | – | COc1ccc(C[C@@H]2CCN([C@@H](C)c3ccccc3)C2=O)cc1 [Compound 22] |
| < 1 µM | > 10 µM | – | CC[C@H](C[C@H]1CCN([C@@H](C)c2ccccc2)C1=O)c1ccccc1 [Compound 140] |
| > 10 µM | 1 to 10 µM | – | COC[C@@H](c1ccccc1)N1CC[C@H](Cc2c(Cl)cccc2Cl)C1=O [Compound 100] |
| > 10 µM | 1 to 10 µM | – | COc1cccc(CC2CCN(CCc3ccccc3)C2=O)c1 (stereo not shown) [Compound 24] |
| 1 to 10 µM | < 1 µM | – | C[C@@H](c1ccccc1)N1CC[C@H](CCc2cccc3ccccc23)C1=O [Compound 75] |
